These results are taken from patent publication US8895585B2, “Nicotinamide derivative or salt thereof” (FUJIFILM Corporation, priority 2010, dated 2014).

Each structure is given as a SMILES string.

Experiment [1] deals with THP-1 cells. Description: TNFα generation assay. The experiment is classed as cell-based, human. The following applies: Table 22, read-out: IC50 in TNFα generation assay. The essentials:
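THP-1 cells differentiated to macrophage-like cells with 10 ng/ml IFN-γ for 2 days, preincubated with compound 30 min at room temperature, then cultured 7 h on plates coated with human IgG (10 μg/ml). Secreted TNFα measured by ELISA or AlphaLISA.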

In experiment [2] the test system is THP-1 cells. As to the kind of experiment: Antibody-dependent phagocytosis assay. The experiment is classed as cell-based. The following applies: Homo sapiens; THP-1 cells induced to differentiate with IFNγ; opsonized Escherichia coli; Table 23; read-out: IC50 upon phagocytosis inhibition. As to the method:
THP-1 cells (2×10^5 cells/ml) which are human monocyte-like cell line were cultured in the presence of 10 ng/ml IFNγ for 2 days, so that the cells were induced to differentiate into macrophage-like cells. THP-1 cells that had been induced to differentiate were collected. The cells (5×10^4 cells/well) were reacted with test compounds having given concentrations at room temperature for 30 minutes. Thereafter, Escherichia coli (Life Technologies) labeled with a pH-sensitive dye (pHrodo) was subjected to opsonization using an anti-Escherichia coli antibody (Molecular Probes). Then, the resultant was added to THP-1 cells mixed with test compounds that had been induced to differentiate, followed by incubation at 37° C. for 3 hours. At the time of addition of opsonized Escherichia coli, cell-permeable fluorescent dye (Calcein AM) were simultaneously added thereto, and phagocytosis of opsonized Escherichia coli in viable cells was quantitatively determined using an IN Cell Analyzer.
In addition, the following are used in Table 23 to denote standards for evaluating IC50 upon phagocytosis inhibition. • A: Up to 1 μM • B: 1 to 3 μM • C: 3 to 6 μM

Experiment [3] deals with T1, glutathione S-transferase (GST)-fused full-length human Syk protein (Homo sapiens, UniProt P43405).
T1 construct: (GST)-fused full-length human Syk protein; GST (glutathione S-transferase); purchased Carna Biosciences
As to the kind of experiment: Syk enzyme assay. The experiment is classed as biochemical. The settings on record: Syk enzyme assay, Test Example 1; read-out: IC50 of Syk-inhibitory activity. The method in brief:
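Baculovirus-expressed enzyme (1.2 ng) was preincubated with compound in HEPES pH 7.0/MgCl2/DTT buffer, 2 min shaking then 13 min at room temperature. Biotin-EDPDYEWPSA-NH2 (0.4 μM final) and ATP (27 μM final) were added for 40 min at room temperature. EDTA stop, streptavidin-XL/PT66-K TR-FRET at 615/665 nm gave IC50.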

Setting [4] is: Homo sapiens, THP-1, THP-1 cells.

Turning to `N#Cc1cc(Nc2nc(N[C@@H]3CCCC[C@@H]3N)c(F)cc2C(N)=O)cnc1N1CCOCC1` (relative stereo) [Example 004-228, 6-((cis-2-aminocyclohexyl)amino)-2-((5-cyano-6-morpholinopyridin-3-yl)amino)-5-fluoronicotinamide], the IC50 in the experiment on THP-1 cells [1] (setting [4]) fell in the range of 65 to 130 nM; with THP-1 cells [2], 1000 to 3000 nM; in experiment [3], 10 to 50 nM.
On the same counts, the results for `CCCOc1cc(Nc2nc(N[C@H](CCC)[C@H](C)N)c(F)cc2C(N)=O)ccn1` [Example 006-311, 6-(((2S,3R)-2-aminohexan-3-yl)amino)-5-fluoro-2-((2-propoxypyridin-4-yl)amino)nicotinamide] are 65 to 130 nM, 1000 to 3000 nM and under 10 nM.
On the same counts, the results for `COc1cc(Nc2nc(NC[C@H](C)N)c(F)cc2C(N)=O)cc(OC)n1` [Example 006-098, (S)-6-((2-aminopropyl)amino)-2-((2,6-dimethoxypyridin-4-yl)amino)-5-fluoronicotinamide] are under 65 nM, under 1000 nM and under 10 nM.
The corresponding values for `NC(=O)c1cc(F)c(N[C@@H]2CCCC[C@@H]2N)nc1Nc1cnc(N2CCOCC2)c(F)c1` [Example 006-395, 6-(((1R,2S)-2-aminocyclohexyl)amino)-5-fluoro-2-((5-fluoro-6-morpholinopyridin-3-yl)amino)nicotinamide] are 65 to 130 nM, 1000 to 3000 nM and 10 to 50 nM.
As for `NC(=O)c1cc(F)c(NC2CCCCC2N)nc1Nc1cccc(C(F)(F)F)c1` (centres unmarked) [Example 008-007], the figures for the IC50 (in the experiment with THP-1 cells [2]; in experiment [3]) were 3000 to 6000 nM and under 10 nM, respectively.
As to `COc1ncc(Nc2nc(N[C@@H]3CCCC[C@@H]3N)c(F)cc2C(N)=O)cc1-n1nccn1` [Example 006-377, 6-(((1R,2S)-2-aminocyclohexyl)amino)-5-fluoro-2-((6-methoxy-5-(2H-1,2,3-triazol-2-yl)pyridin-3-yl)amino)nicotinamide], the IC50 was under 65 nM in the experiment on THP-1 cells [1] (setting [4]), 1000 to 3000 nM in the experiment on THP-1 cells [2] and under 10 nM in experiment [3].
With `NC(=O)c1cc(F)c(NC2CCCCC2N)nc1Nc1ccc2ncccc2c1` (centres unmarked) [Example 008-006], the IC50 is under 65 nM in the experiment with THP-1 cells [1] (setting [4]), under 1000 nM in the experiment on THP-1 cells [2] and under 10 nM in experiment [3].
The corresponding values for `CC[C@@H](Nc1nc(Nc2ccc3c(cnn3CC)c2)c(C(N)=O)cc1F)[C@H](C)N` [Example 006-211, 6-(((2S,3R)-2-aminopentan-3-yl)amino)-2-((1-ethyl-1H-indazol-5-yl)amino)-5-fluoronicotinamide] are under 65 nM, 1000 to 3000 nM and under 10 nM.
Take `CCC(N)CNc1nc(Nc2ccc3ncccc3c2)c(C(N)=O)cc1F` (centres unmarked) [Example 014-001]: the IC50 was under 65 nM in the experiment on THP-1 cells [1] (setting [4]), 1000 to 3000 nM in the experiment on THP-1 cells [2] and under 10 nM in experiment [3].
Regarding `CCn1ncc2cc(Nc3nc(N[C@@H](CN)CC(C)C)c(F)cc3C(N)=O)ccc21` [Example 006-322, (R)-6-((1-amino-4-methylpentan-2-yl)amino)-2-((1-ethyl-1H-indazol-5-yl)amino)-5-fluoronicotinamide], the IC50 with THP-1 cells [1] (setting [4]) was under 65 nM; with THP-1 cells [2], under 1000 nM; in experiment [3] it was under 10 nM.
Consider `COc1cncc(Nc2nc(N[C@@H]3CCCC[C@@H]3N)c(F)cc2C(N)=O)c1` [Example 004-031], for which the IC50 with THP-1 cells [1] (setting [4]) was 130 to 200 nM; in the experiment on THP-1 cells [2], 1000 to 3000 nM; in experiment [3], under 10 nM.
On the same counts, the results for `COC[C@@H](Nc1nc(Nc2ccc3ncccc3c2)c(C(N)=O)cc1F)[C@H](C)N` [Example 006-468, 6-(((2S,3S)-3-amino-1-methoxybutan-2-yl)amino)-5-fluoro-2-((quinolin-6-yl)amino)nicotinamide] are under 65 nM, under 1000 nM and under 10 nM.
`CCC[C@@H](Nc1nc(Nc2ccnc(OC)c2)c(C(N)=O)cc1F)[C@H](C)N` [Example 006-249, 6-(((2S,3R)-2-aminohexan-3-yl)amino)-5-fluoro-2-((2-methoxypyridin-4-yl)amino)nicotinamide]: the figures for the IC50 (in the experiment with THP-1 cells [1] (setting [4]); in the experiment on THP-1 cells [2]; in experiment [3]) were under 65 nM, 1000 to 3000 nM and under 10 nM, respectively.
With `COCCOc1ccc2cc(Nc3nc(N[C@@H]4CCCC[C@@H]4N)c(F)cc3C(N)=O)cnc2c1` [Example 006-173, 6-(((1R,2S)-2-aminocyclohexyl)amino)-5-fluoro-2-((7-(2-methoxyethoxy)quinolin-3-yl)amino)nicotinamide], the IC50 is 65 to 130 nM with THP-1 cells [1] (THP-1 cells), 1000 to 3000 nM in the experiment on THP-1 cells [2] and under 10 nM in experiment [3].
As to `CCn1ncc2cc(Nc3nc(N[C@H](CC(C)C)[C@H](C)N)c(F)cc3C(N)=O)ccc21` [Example 006-384, 6-(((2S,3R)-2-amino-5-methylhexan-3-yl)amino)-2-((1-ethyl-1H-indazol-5-yl)amino)-5-fluoronicotinamide], the figures for the IC50 (in the experiment on THP-1 cells [1] (setting [4]); in the experiment on THP-1 cells [2]; in experiment [3]) were under 65 nM, under 1000 nM and under 10 nM, respectively.
The corresponding values for `NC(=O)c1cc(F)c(N[C@@H]2CCCC[C@@H]2N)nc1Nc1ccnc2[nH]ccc12` (relative stereo) [Example 004-060] are under 65 nM, 1000 to 3000 nM and under 10 nM.
On the same counts, the results for `Cc1cc(Nc2nc(N[C@@H](CN)CC(C)C)c(F)cc2C(N)=O)cnc1C` [Example 006-177, (R)-6-((1-amino-4-methylpentan-2-yl)amino)-2-((5,6-dimethylpyridin-3-yl)amino)-5-fluoronicotinamide] are 130 to 200 nM, 1000 to 3000 nM and under 10 nM.
`CCC[C@@H](Nc1nc(Nc2cncc(-n3cccn3)c2)c(C(N)=O)cc1F)[C@H](C)N` [Example 006-219, 2-((5-(1H-pyrazol-1-yl)pyridin-3-yl)amino)-6-(((2S,3R)-2-aminohexan-3-yl)amino)-5-fluoronicotinamide]: the figures for the IC50 (in the experiment on THP-1 cells [1] (setting [4]); in the experiment with THP-1 cells [2]; in experiment [3]) were 65 to 130 nM, 1000 to 3000 nM and under 10 nM, respectively.
In the case of `CC[C@@H](Nc1nc(Nc2ccc3c(OC)nccc3c2)c(C(N)=O)cc1F)[C@H](C)N` [Example 006-263, 6-(((2S,3R)-2-aminopentan-3-yl)amino)-5-fluoro-2-((1-methoxyisoquinolin-6-yl)amino)nicotinamide], the IC50 in the experiment with THP-1 cells [1] (setting [4]) is under 65 nM; in the experiment on THP-1 cells [2], 1000 to 3000 nM; in experiment [3], under 10 nM.
In the case of `Cc1ncc(Nc2nc(N[C@@H]3CCCC[C@@H]3N)c(F)cc2C(N)=O)cc1-n1nccn1` [Example 006-375, 6-(((1R,2S)-2-aminocyclohexyl)amino)-5-fluoro-2-((6-methyl-5-(2H-1,2,3-triazol-2-yl)pyridin-3-yl)amino)nicotinamide], the IC50 is 65 to 130 nM in the experiment on THP-1 cells [1] (setting [4]), 1000 to 3000 nM in the experiment with THP-1 cells [2] and under 10 nM in experiment [3].
The corresponding values for `NC(=O)c1cc(F)c(N[C@@H]2CCCC[C@@H]2N)nc1Nc1ccc(N2CCOCC2)nc1` [Example 006-165, 6-(((1R,2S)-2-aminocyclohexyl)amino)-5-fluoro-2-((6-morpholinopyridin-3-yl)amino)nicotinamide] are 65 to 130 nM, 1000 to 3000 nM and 10 to 50 nM.
On to `CCn1ncc2cc(Nc3nc(N[C@H](CC4CC4)[C@H](C)N)c(F)cc3C(N)=O)ccc21` [Example 006-342, 6-(((2R,3S)-3-amino-1-cyclopropylbutan-2-yl)amino)-2-((1-ethyl-1H-indazol-5-yl)amino)-5-fluoronicotinamide], for which the results for the IC50 (in the experiment with THP-1 cells [1] (setting [4]); with THP-1 cells [2]; in experiment [3]) were under 65 nM, 1000 to 3000 nM and under 10 nM, respectively.
`CC[C@@H](Nc1nc(Nc2cncc(-c3ccccc3)c2)c(C(N)=O)cc1F)[C@H](C)N` [Example 006-270, 6-(((2S,3R)-2-aminopentan-3-yl)amino)-5-fluoro-2-((5-phenylpyridin-3-yl)amino)nicotinamide]: the IC50 is under 65 nM with THP-1 cells [1] (setting [4]), 1000 to 3000 nM with THP-1 cells [2] and under 10 nM in experiment [3].
The corresponding values for `NC(=O)c1cc(F)c(NC2CCCCC2N)nc1Nc1cncc(-c2ccccc2)c1` (centres unmarked) [Example 002-001] are under 65 nM, 1000 to 3000 nM and under 10 nM.
On to `COc1cccc2cc(Nc3nc(N[C@@H]4CCCC[C@@H]4N)c(F)cc3C(N)=O)cnc12` (relative stereo) [Example 004-120, 6-(cis-2-aminocyclohexylamino)-5-fluoro-2-((8-methoxyquinolin-3-yl)amino)nicotinamide], for which the IC50 in the experiment on THP-1 cells [2] is under 1000 nM; in experiment [3] it was under 10 nM.
With `NC(=O)c1cc(Nc2nc(NC3CCCC[C@@H]3N)c(F)cc2C(N)=O)ccn1` (some centres unmarked) [Example 029-012], in the experiment with THP-1 cells [2], the IC50 was 3000 to 6000 nM.
